# Experimental data as given in patent US8791268B2, “Vanilloid receptor ligands, pharmaceutical compositions containing them, process for making them, and use thereof for treating pain and other conditions” (Gruenenthal GmbH, priority 2007, dated 2014).
# Tests used:
# Assay type in all cases: cell-based
# vanilloid receptor (VR1) = vanilloid receptor (VR1) (Homo sapiens (Human), UniProt Q8NER1); test: FLIPR Ca2+ influx assay on CHO-K1 cells transfected with the human VR1 gene, capsaicin stimulus (Pharmacological Method II)
# Protocol: Furthermore, preference may be given to compounds of the invention of the general formulas I, Ia, Ib and Ic, which in the FLIPR assay using CHO—K1 cells, which have been transfected with the human VR1 gene in a concentration below 2000 nM, preferably below 1000 nM, more preferably below 300 nM, even more preferably below 100 nM, still more preferably below 75 nM, very preferably below 50 nM and most preferably below 10 nM, cause a 50 percent displacement of capsaicin present in a concentration of 100 nM. In the FLIPR assay, the Ca^2+ influx is quantified with the aid of a Ca^2+-sensitive dye (type Fluo-4, Molecular Probes Europe BV, Leiden, Netherlands) in a fluorescent imaging plate reader (FLIPR, Molecular Devices, Sunnyvale, USA), as described below.
# II. Functional Investigations on the Vanilloid Receptor (VR1)
# The agonistic or antagonistic action of the substances to be examined on the vanilloid receptor (VR1) can alternatively be determined by the following assay. According to this assay the Ca^2+ influx through the canal is quantified with the aid of a Ca^2+-sensitive dye (type Fluo-4, Molecular Probes, Europe BV, Leiden, Netherlands) in a fluorescent imaging plate reader (FLIPR, Molecular Devices, Sunnyvale, USA).
# Chinese hamster ovary cells (CHO—K1 cells, European Collection of Cell Cultures (ECACC) UK) are stably transfected with the VR1 gene. For carrying out functional investigations, these cells are plated on poly-D-lysine-coated, black 96-well plates with a clear bottom (BD Biosciences, Heidelberg, Germany) in a density of 25,000 cells/well. The cells are incubated overnight at 37° C. and 5% CO2 in a culture medium (Nutrient Mixture ‘am’s F12, 10% by volume of FCS (fetal calf serum), 18 μg/mL of L-proline). On the following day the cells are incubated with Fluo-4 (Fluo-4 2 μM, Pluronic F127 0.01 by volume, Molecular Probes in HBSS (Hank's buffered saline solution), Gibco Invitrogen GmbH, Karlsruhe, Germany) for 30 minutes at 37° C. The plates are then washed 3 times with HBSS buffer and, after another incubation over a period of 15 minutes at RT, are used in the FLIPR for Ca^2+ measurement. The Ca^2+-dependent fluorescence is measured prior to and following the addition of the substances being examined (wavelength λex=488 nm, λem=540 nm). Quantification is carried out by measuring the highest fluorescence intensity (PC, fluorescence counts) over time.
# The FLIPR protocol consists of two substance additions. First of all, the substances to be tested (10 μM) are pipeted onto the cells and the Ca^2+ influx is compared with the control (capsaicin 10 μM) (percentage activation based on the Ca^2+ signal following addition of 10 μM of capsaicin). Following incubation over a period of 5 minutes 100 nM of capsaicin are applied and the influx of Ca^2+ is likewise determined.
# Desensitizing agonists and antagonists lead to a suppression of the Ca^2+ influx. The percentage inhibition compared with the maximum inhibition achieved with 10 μM of capsaicin is calculated.
# Based on the percentage displacement effected by different concentrations of the compounds of the general formula Ito be tested, IC50 inhibition concentrations that cause 50 percent displacement of capsaicin are calculated. Conversion using the Cheng Prusoff equation gave Ki values for the test substances (Cheng, Prusoff; Bioch. Pharmacol. 22, 3099-3108, 1973).
# The affinity of the compounds of the invention for the vanilloid receptor 1 (VR1/TRPV1-Receptor) was detected as described above (Pharmacological Methods I and II respectively).
# VR1/TRPV1 receptor = VR1/TRPV1 receptor (Homo sapiens (Human), UniProt Q8NER1); test: Inhibition of human VR1/TRPV1 following pH-stimulus; settings: for inhibition at 1 µM / inhibition at 5 µM / inhibition at 10 µM: read-out: inhibition (in percent) following pH-stimulus (Human); for IC50 (Human) following pH-stimulus / IC50: ne = no effect, no reaction observed
# [1] = target: vanilloid receptor 1 (VR1/TRPV1) (Rattus norvegicus (Rat), UniProt O35433); test: FLIPR Ca2+ influx assay on rat dorsal root ganglia cells, capsaicin stimulus (Pharmacological Method I)
# Text: I. Functional Investigation on the Vanilloid Receptor 1 (VR1/TRPV1 Receptor)
# The agonistic or antagonistic action of the substances to be investigated on the vanilloid receptor 1 (VR1/TRPV1) of the species rat can be determined using the following assay. According to this assay, the Ca^2+ influx through the receptor channel is quantified with the aid of a Ca^2+-sensitive dye (Type Fluo-4, Molecular Probes Europe BV, Leiden Netherlands) in a fluorescent imaging plate reader (FLIPR, Molecular Devices, Sunnyvale, USA).
# Complete medium: 50 mL of HAMS F12 Nutrient Mixture (Gibco Invitrogen GmbH, Karlsruhe, Germany) with
# 10% by volume of FCS (fetal calf serum, Gibco Invitrogen GmbH, Karlsruhe, Germany, heat-inactivated);
# 2 mM of L-glutamine (Sigma, Munich, Germany);
# 1% by weight of AA solution (antibiotics/antimycotics solution, PAA, Pasching, Austria)
# and 25 ng/mL of Medium NGF (2.5 S, Gibco Invitrogen GmbH, Karlsruhe, Germany) Cell culture plate: Poly-D-lysine-coated, black 96-well plates with a clear bottom (96-well black/clear plate, BD Biosciences, Heidelberg, Germany) are additionally coated with laminin (Gibco Invitrogen GmbH, Karlsruhe, Germany) by diluting laminin to a concentration of 100 μg/mL with PBS (Ca—Mg-free PBS, Gibco Invitrogen GmbH, Karlsruhe, Germany). Aliquots having a concentration of 100 μg/mL of laminin are taken and stored at −20° C. The aliquots are diluted with PBS in the ratio 1:10 to 10 μg/mL of laminin and in each case 50 μL of the solution is pipeted into a well of the cell culture plate. The cell culture plates are incubated at 37° C. for at least two hours, the supernatant solution is aspirated and the wells are in each case washed twice with PBS. The coated cell culture plates are stored with supernatant PBS and this is removed only directly before the addition of the cells.
# Preparation of the Cells:
# The vertebral column is removed from decapitated rats and this is laid directly in a cold, i.e. ice bath-surrounded, HBSS buffer (Hank's buffered saline solution, Gibco Invitrogen GmbH, Karlsruhe, Germany) and 1% by volume of an AA solution (antibiotics/antimycotics solution, PAA, Pasching, Austria) is added. The vertebral column is cut in two, longitudinally, and the vertebral canal is removed together with fascias. Subsequently, the dorsal root ganglia (DRGs) are removed and in turn stored in cold HBSS buffer to which 1% by volume of an AA solution has been added. The DRGs completely freed from blood residues and spinal nerves are in each case transferred to 500 μL of cold collagenase Type 2 (PAA, Pasching, Austria) and incubated at 37° C. for 35 minutes. After the addition of 2.5% by volume of trypsin (PAA, Pasching, Austria), the preparation is incubated at 37° C. for a further 10 minutes. On completion of incubation, the enzyme solution is carefully pipeted off and 500 μL of complete medium are added to the DRGs in each case. The DRGs are in each case repeatedly suspended, drawn through No. 1, No. 12, and No. 16 needles by means of a syringe and transferred to 50 mL Falcon tubes and these are filled to 15 mL with complete medium. The contents of each Falcon tube are in each case filtered through a 70 μm Falcon filter insert and centrifuged at 1200 rpm and RT for 10 minutes. The resulting pellet is in each case taken up in 250 μL of complete medium and the cell count is determined.
# The number of cells in the suspension is adjusted to 3×10^5 per mL and in each case 150 μL of this suspension are added to a well of the cell culture plates coated as described above. The plates are allowed to stand at 37° C., 5% by volume of CO2 and 95% relative humidity for two to three days in an incubator. […]
# Chain of vanilloid receptor (VR1) (Q8NER1 whole entry): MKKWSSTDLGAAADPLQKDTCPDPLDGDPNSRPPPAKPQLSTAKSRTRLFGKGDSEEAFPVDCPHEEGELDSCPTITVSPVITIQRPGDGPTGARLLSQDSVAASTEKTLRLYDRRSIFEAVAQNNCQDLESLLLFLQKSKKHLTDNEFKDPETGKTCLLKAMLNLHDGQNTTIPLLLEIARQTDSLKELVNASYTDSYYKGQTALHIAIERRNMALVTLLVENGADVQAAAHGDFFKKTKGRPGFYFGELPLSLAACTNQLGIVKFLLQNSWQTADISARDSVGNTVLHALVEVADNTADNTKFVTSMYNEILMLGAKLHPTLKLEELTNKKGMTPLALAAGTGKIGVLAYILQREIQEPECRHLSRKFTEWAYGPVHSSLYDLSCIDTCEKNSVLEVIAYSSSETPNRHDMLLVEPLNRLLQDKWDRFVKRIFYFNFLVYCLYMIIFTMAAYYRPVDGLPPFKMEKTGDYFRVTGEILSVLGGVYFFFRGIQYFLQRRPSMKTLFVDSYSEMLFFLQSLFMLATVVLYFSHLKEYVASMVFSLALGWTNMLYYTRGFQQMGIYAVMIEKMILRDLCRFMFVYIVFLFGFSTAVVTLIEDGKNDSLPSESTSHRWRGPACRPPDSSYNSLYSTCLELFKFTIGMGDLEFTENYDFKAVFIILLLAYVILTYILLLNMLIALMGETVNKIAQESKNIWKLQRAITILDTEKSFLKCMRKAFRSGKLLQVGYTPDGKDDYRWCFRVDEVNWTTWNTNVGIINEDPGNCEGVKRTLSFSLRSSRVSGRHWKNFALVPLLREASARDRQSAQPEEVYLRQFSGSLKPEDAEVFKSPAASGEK
# Chain of VR1/TRPV1 receptor (Q8NER1 whole entry): as above
# Chain of vanilloid receptor 1 (VR1/TRPV1) (O35433 whole entry): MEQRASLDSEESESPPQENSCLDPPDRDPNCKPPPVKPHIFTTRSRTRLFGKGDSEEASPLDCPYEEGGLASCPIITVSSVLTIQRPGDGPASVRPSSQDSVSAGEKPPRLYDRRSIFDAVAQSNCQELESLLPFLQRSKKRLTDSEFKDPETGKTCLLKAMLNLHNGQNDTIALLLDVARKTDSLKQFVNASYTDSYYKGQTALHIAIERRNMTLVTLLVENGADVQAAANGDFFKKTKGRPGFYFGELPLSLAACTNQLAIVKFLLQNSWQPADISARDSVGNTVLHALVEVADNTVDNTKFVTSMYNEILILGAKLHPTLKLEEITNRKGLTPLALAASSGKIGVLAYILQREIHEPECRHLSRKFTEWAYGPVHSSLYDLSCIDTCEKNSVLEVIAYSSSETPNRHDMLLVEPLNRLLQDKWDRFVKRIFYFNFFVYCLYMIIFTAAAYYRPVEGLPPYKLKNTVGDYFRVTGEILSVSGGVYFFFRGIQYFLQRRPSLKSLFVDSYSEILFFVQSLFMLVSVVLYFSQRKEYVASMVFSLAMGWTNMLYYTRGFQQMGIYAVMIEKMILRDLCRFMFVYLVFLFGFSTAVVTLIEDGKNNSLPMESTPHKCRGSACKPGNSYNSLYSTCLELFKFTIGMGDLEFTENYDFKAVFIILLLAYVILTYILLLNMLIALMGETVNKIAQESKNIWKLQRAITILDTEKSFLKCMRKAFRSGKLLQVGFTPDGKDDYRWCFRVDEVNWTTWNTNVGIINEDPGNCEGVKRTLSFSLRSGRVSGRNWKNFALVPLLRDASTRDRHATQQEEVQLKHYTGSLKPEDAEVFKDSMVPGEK
SMILES,Ki (vanilloid receptor (VR1)) [nM],inhibition at 1 µM (VR1/TRPV1 receptor) [%],inhibition at 5 µM (VR1/TRPV1 receptor) [%],inhibition at 10 µM (VR1/TRPV1 receptor) [%],IC50 (Human) following pH-stimulus (VR1/TRPV1 receptor),Ki [1] [nM],IC50 (VR1/TRPV1 receptor) [nM]
"CC1CCN(c2nc(C(F)(F)F)ccc2CNC(=O)C(C)c2cc(Br)c(N)c(Br)c2)CC1 (stereo not drawn) [Example 20, 2-(4-Amino-3,5-dibromophenyl)-N-(4-methyl-6′-trifluoromethyl-3,4,5,6-tetra-hydro-2H-[1,2′]bipyridinyl-3′-ylmethyl)propionamide]",0.9,0,10,27,,,
"C=CC(=O)Nc1c(F)cc(C(C)C(=O)NCc2ccc(C(F)(F)F)nc2N2CCC(C)CC2)cc1I (stereo not drawn) [Example 34, N-(2-Fluoro-6-iodo-4-(1-((2-(4-methylpiperidin-1-yl)-6-(trifluoromethyl)pyridin-3-yl)methylamino)-1-oxopropan-2-yl)phenyl)acrylamide]",4.8,,,,ne,,
"CC1CCN(c2nc(C(F)(F)F)ccc2CNC(=O)C(C)c2cc(F)cc(F)c2)CC1 (stereo not drawn) [Example 10, 2-(3,5-Difluorophenyl)-N-(4-methyl-6′-trifluoromethyl-3,4,5,6-tetrahydro-2H-[1,2′]bipyridinyl-3′-ylmethyl)propionamide]",24.7,,,,ne,,
"CC1CCN(c2nc(C(F)(F)F)ccc2CNC(=O)C(C)c2cc(O)c([N+](=O)[O-])c(F)c2)CC1 (stereo not drawn) [Example 27, 2-(3-Fluoro-5-hydroxy-4-nitrophenyl)-N-((2-(4-methylpiperidin-1-yl)-6-(trifluoromethyl)pyridin-3-yl)methyl)propanamide]",7.9,7,35,49,,7.7,
"CC1CCN(c2nc(C(F)(F)F)ccc2CNC(=O)Cc2cc(Br)cc(Br)c2)CC1 [Example 2, 2-(3,5-Dibromophenyl)-N-((2-(4-methylpiperidin-1-yl)-6-(trifluoromethyl)pyridin-3-yl)methyl)acetamide]",40.6,,,,ne,60.1,
"CC1CCN(c2nc(C(F)(F)F)ccc2CNC(=O)Cc2cc(Br)c(N)c(Br)c2)CC1 [Example 22, 2-(4-Amino-3,5-dibromophenyl)-N-(4-methyl-6′-trifluoromethyl-3,4,5,6-tetra-hydro-2H-[1,2′]bipyridinyl-3′-ylmethyl)acetamide]",0.7,,,,,,158
"CC1CCN(c2nc(C(F)(F)F)ccc2CNC(=O)Cc2cccc(F)c2)CC1 [Example 4, 2-(3-Fluorophenyl)-N-(4-methyl-6′-trifluoromethyl-3,4,5,6-tetrahydro-2H-[1,2′]bipyridinyl-3′-ylmethyl)acetamide]",34,,,,ne,80,
"CC1CCN(c2nc(C(F)(F)F)ccc2CNC(=O)C(C)c2cc(Br)c(O)c(Br)c2)CC1 (stereo not drawn) [Example 19, 2-(3,5-Dibromo-4-hydroxyphenyl)-N-(4-methyl-6′-trifluoromethyl-3,4,5,6-tetra-hydro-2H-[1,2′]bipyridinyl-3′-ylmethyl)propionamide]",1.1,0,20,31,,,
"COc1cc(CC(=O)NCc2ccc(C(F)(F)F)nc2N2CCC(C)CC2)cc(Br)c1O [Example 21, 2-(3-Bromo-4-hydroxy-5-methoxyphenyl)-N-(4-methyl-6′-trifluoromethyl-3,4,5,6-tetrahydro-2H-[1,2′]bipyridinyl-3′-ylmethyl)acetamide]",0.1,,4,38,,,
"CC1CCN(c2nc(C(F)(F)F)ccc2CNC(=O)Cc2cc(Br)c(O)c(Br)c2)CC1 [Example 23, 2-(3,5-Dibromo-4-hydroxyphenyl)-N-(4-methyl-6′-trifluoromethyl-3,4,5,6-tetra-hydro-2H-[1,2′]bipyridinyl-3′-ylmethyl)acetamide]",0.3,,8,35,,,
"CC1CCN(c2nc(C(F)(F)F)ccc2CNC(=O)Cc2c(F)cccc2F)CC1 [Example 6, 2-(2,6-Difluorophenyl)-N-(4-methyl-6′-trifluoromethyl-3,4,5,6-tetrahydro-2H-[1,2′]bipyridinyl-3′-ylmethyl)acetamide]",38,,,,ne,118,
"COc1cc(CC(=O)NCc2ccc(C(F)(F)F)nc2N2CCC(C)CC2)cc(Br)c1N [Example 3, 2-(4-Amino-3-bromo-5-methoxyphenyl)-N-(4-methyl-6′-trifluoromethyl-3,4,5,6-tetrahydro-2H-[1,2′]bipyridinyl-3′-ylmethyl)acetamide]",4.4,,,,,16.7,253
"CC(=O)Nc1ccc(C(C)C(=O)NCc2ccc(C(F)(F)F)nc2N2CCC(C)CC2)cc1F (stereo not drawn) [Example 18, 2-(4-Acetamido-3-fluorophenyl)-N-((2-(4-methylpiperidin-1-yl)-6-(trifluoromethyl)pyridin-3-yl)methyl)propanamide]",25,,,,ne,,
